{"source": "paper PMC12498190", "about": "“A Photocaged N‐Phosphonopiperidinone as a Selective Photo‐Cleavable DPP8/9 Inhibitor” (Chembiochem, 2025)", "type": "physicochemical", "conditions": "50 µM in 10% acetonitrile/water, green LED 520-530 nm, 30 W", "protocol": "With 5 in our hands, we then started our probe characterization by determining the velocity of the photorelease reaction, i.e., the light‐triggered cleavage of the photocage, thereby delivering again the “active” inhibitor 1. To this end, a 50 µM solution of 5 in 10% acetonitrile in MS‐grade water was irradiated with a green LED lamp (λ = 520‐530 nm, 30 W) for the indicated time periods, and the release of the active inhibitor 1 was quantified via liquid chromatography‐mass spectrometry (LC–MS) analysis (Figure 1A). […] After 3 min, cleavage was quantitative (>99%). Importantly, the only products observed were the desired ‘free’ inhibitor 1 and the cleaved photogroup, indicating a clean activation to 1.\nFigure 1 DPP inhibition by photo‐cleavable inhibitors. A) LC‐MS analysis of the photocleavage reaction of 5 after irradiation with green light. 50 µM of compound 5 was irradiated with a green LED lamp (λ = 520‐530 nm, 30 W) for up to 5 min, and the resulting reaction mixture was analyzed via LC‐MS. […] B) Resulting quantification of the photolysis of 5 based on peak areas depicted in A) (n = 3 technical replicates). […] Enzyme activity was determined by measuring the release of AMC from the substrate GP‐AMC. […]\nCompound 5 was dissolved in DMSO. In order to quantify the effect of irradiation time on photocleavage of the BODIPY moiety, 50 µL aliquots of a 50 µM solution of 5 in 10% acetonitrile (ACN; VWR Chemicals, USA) in MS‐grade water (VWR Chemicals, USA) were irradiated for 0–5 min with a green LED lamp (λ = 520–530 nm, 30 W; Eurolite, Germany) at room temperature (RT) and gentle shaking (final DMSO concentration: 0.5%).\nQuantification of inhibitor release was then determined via LC‐MS on an LTQ XL linear ion trap mass spectrometer (ITMS; Thermo Fisher Scientific, USA) coupled to a DIONEX UltiMate 3000 system (Thermo Fisher Scientific, USA), operated using Xcalibur software 4.4.16.14. […] Quantification was done using Freestyle v1.6. based on the UV spectra (λ = 254 nm) using the Avalon peak detection algorithm. […]", "note": "Where two headings read alike, the source gives them in different places."}
{"smiles": "CCCCCc1ccc(SCCP(=O)(OCC)N2CCC[C@H](NC(=O)OCC3=C4C(C)=CC(C)=[N+]4[B-](C)(C)n4c(C)cc(C)c43)C2=O)cc1", "note": "(some centres unmarked) [Compound 5]", "values": [{"measurement": "Photocage cleaved off", "setting": "after 2 min", "value": 95, "unit": "%"}, {"measurement": "Photocage cleaved off", "setting": "after 3 min", "value": "> 99", "unit": "%"}]}
